In patent publication US4542027A, “Laidlomycin phenylcarbamate” (Syntex (U.S.A.) Inc., priority 1984, dated 1985):

What was measured:
rumen fluid [1] = assay: Propionic acid production (VFA) in in vitro rumen fluid fermentation; assay type: cell-based, steer; set-up: Propionic acid production rate: unit not given here
Description: (§1) Two separate fermentation models were used to evaluate effects of laidlomycin and laidlomycin phenylcarbamate upon volatile fatty acids (VFA) and lactic acid production. Test compounds were solubilized in absolute ethanol at concentrations of 1 mg/ml and were serially diluted twofold in absolute ethanol through six additional concentrations. Aliquots of 200 μl were transferred to 18×150 mm test tubes, which were used as incubation vessels, and the ethanol was evaporated.
(§2) For both fermentation models rumen fluid from a rumen-fistulated steer, consuming a 100% alfalfa hay diet, was obtained before the morning feeding. The fluid was strained through four layers of cheesecloth, mixed with an equal volume of CO2 -saturated buffer, and 10 ml was transferred to each of the incubation vessels. All tubes were fitted with gas-release stoppers under an atmosphere of CO2 and were incubated in a shaking waterbath at 39° C. […] This medium, designed to be microbiologically nonselective, encouraged VFA production with no accumulation of lactic acid. Buffer used to study lactic acid accumulation (table 1) contained 150 mmol of glucose/liter and had little buffering capacity. This medium favored growth of lactic acid-producing bacteria and allowed rapid production of lactic acid coupled with a precipitous drop in pH from pH 6.2 to less than pH 5 during the course of an incubation.
(§3) Fermentation was terminated at 9 h for the VFA fermentations and at 5.5 h for the lactic acid fermentations by addition of 2 ml of 25% metaphosphoric acid to the incubation tubes. Aliquots were frozen overnight, thawed, centrifuged at 30,000 × g for 10 min and the resulting supernatants analyzed for either L(+)-lactic acid or VFA. The L(+)-lactic acid was analyzed via a specific enzymatic assay in which the concentration of lactic acid in the fermentation broth was quantified by the increase in absorbance of light at 340 nm when nicotinamide adenine dinucleotide was reduced by lactic acid with the aid of L(+)-lactic dehydrogenase. VFA were analyzed via gas chromatography using a Varian chromatograph equipped with a flame ionization detector. Acids were separated on a glass column (0.64×182.9 cm) packed with 10% SP-1200/1% H3 PO4 on Chromosorb-WAW®, 80-100 mesh. This column was obtained pre-packed from Supelco, Inc., Bellefont, Pennsylvania. Chromatographic conditions included a column temperature of 145° C., an injector temperature of 190° C., a detector temperature of 190° C., a carrier gas flow of 45 ml/min and an injection volume of 1 μl.
(§4) Net production rates of all acids were calculated by subtracting the concentration of acids in the incubation fluid before incubation from the concentration determined in each tube after incubation. Molar proportions of acetic, propionic, and butyric acids produced were calculated by dividing the production rate of individual acids by the sum of the production rates of the three acids. Data were analyzed by analysis of variance (SAS, 1979). Comparisons (Duncan's multiple range test) of individual means were made when treatment effects (P<0.05) were indicated.

[2] = test system: Eimeria acervulina and Eimeria maxima; assay: Anticoccidial activity in broiler chicks challenged with Eimeria acervulina and Eimeria maxima; assay type: in vivo; details: for Feed efficiency, feed/gain: 7 d; for Feed consumption / Gain / Final weight: cage of 12 chicks; for Final weight / Lesion scores, middle intestine / Lesion scores, upper intestine: 7 days after challenge; for Lesion scores, middle intestine / Lesion scores, upper intestine: scale 0 (least) to 4 (most severe)
Excerpt: Broiler chicks were reared, 12 per cage, in wire-floored battery cages under conditions which prevented extraneous coccidial infections. All chicks received a nonmedicated starter diet ad libitum until 8 days of age. From 8 days of age until the end of the study, chicks received the test diets which contained either O, 99, 121, 143 or 165 ppm of laidlomycin phenylcarbamate per kg of feed. Three replicate pens per treatment were used for all levels of experimental compounds tested.
At 10 days of age, birds were orally challenged with 200,000 oocycts of the coccidia, Eimeria acervulina, and 20,000 oocysts of Eimeria maxima per bird. The birds were weighed immediately preceding the coccidial challenge and again 7 days later. At 7 days following coccidial challenge, all birds were killed and lesions in the upper and middle sections of the intestinal tracts of six preselected birds per cage were scored on a scale of 0 to 4 based upon their number and severity. Feed present at the time of coccidial challenge and remaining 7 days later was used to determine the effects of compounds upon total feed consumption and feed efficiency.

rumen fluid [3] = assay: L(+)-Lactic acid production in in vitro rumen fluid fermentation; assay type: cell-based, steer; set-up: Lactic acid production rate: unit not given here
Description: as §1, §2, §3, §4

[4] = Stability at 60° C. in methanol-water, acetate buffer; assay type: physicochemical
Description: Laidlomycin phenylcarbamate, laidlomycin isopopylcarbamate and two laidlomycin esters were prepared and their relative stability at 60° C. methanol-water, acetate buffer was determined. A complete list of the esters and carbamates which were tested under these conditions follows: […]

[5] = Stability in soybean millrun feed premix at 60° C.; assay type: physicochemical
Description: These materials were then stored at 60° C. and analyzed for starting material at one week. The premix composition is given in Table 5 and the stability data in Table 6.

[6] = all non-zero concentrations, vs unmedicated
[7] = in comparison with laidlomycin acylates

SMILES: CCC(=O)OC(C(C)C(=O)O)C(C)C1OC2(CCC(C)(C3CCC(C)(C4OC(C5OC(O)(COC(=O)Nc6ccccc6)C(C)CC5C)CC4C)O3)O2)CC(O)C1C (stereo not drawn) [Laidlomycin phenylcarbamate, laidlomycin phenylcarbamate]
- Propionate production enhancement (in words) (rumen fluid [1]): surprisingly and unexpectedly high
- Propionic acid production rate (rumen fluid [1]; 0.31 μg/ml, 9 h): 22.8
- Propionic acid production rate (rumen fluid [1]; 0.62 μg/ml, 9 h): 23.4
- Propionic acid production rate (rumen fluid [1]; 1.25 μg/ml, 9 h): 25.2
- Propionic acid production rate (rumen fluid [1]; 2.50 μg/ml, 9 h): 25.7
- Propionic acid production rate (rumen fluid [1]; 5.00 μg/ml, 9 h): 26.9
- Propionic acid production rate (rumen fluid [1]; 10.00 μg/ml, 9 h): 27.0
- Propionic acid production rate (rumen fluid [1]; 20.00 μg/ml, 9 h): 28.2
- Propionic acid production, percentage of control (rumen fluid [1]; 20.00 μg/ml, 9 h, 540 min): 133 % of control
- activity at 0.31 µg/mL (rumen fluid [1]; 9 h, 0.31 μg/ml, 9 h, read-out: Propionic acid production, percentage of control): 107%
- activity at 1.25 µg/mL (rumen fluid [1]; 9 h, 1.25 μg/ml, 9 h, read-out: Propionic acid production, percentage of control): 118%
- activity at 2.5 µg/mL (rumen fluid [1]; 9 h, 2.50 μg/ml, 9 h, read-out: Propionic acid production, percentage of control): 121%
- activity at 5 µg/mL (rumen fluid [1]; 9 h, 5.00 μg/ml, 9 h, read-out: Propionic acid production, percentage of control): 126%
- activity at 10 µg/mL (rumen fluid [1]; 9 h, 10.00 μg/ml, 9 h, read-out: Propionic acid production, percentage of control): 127%
- activity at 20 µg/mL (rumen fluid [1]; 9 h, 20.00 μg/ml, 9 h, read-out: Propionic acid production, percentage of control): > 130%
- activity at 0.62 µg/mL (rumen fluid [1]; 9 h, read-out: Propionic acid production, percentage of control, 0.62 μg/ml, 9 h): 110%
- Propionic acid production enhancement relative to laidlomycin (rumen fluid [1]; over all concentrations): more potent than laidlomycin (P<0.05)
- Feed efficiency, feed/gain ([2]; 99 mg/kg of feed): 2.21
- Feed consumption ([2]; 99 mg/kg of feed): 3.40 kg/7 d
- Gain ([2]; 99 mg/kg of feed): 1.54 kg/7 d
- Final weight ([2]; 99 mg/kg of feed): 3.86 kg
- Lesion scores, middle intestine ([2]; 99 mg/kg of feed): 1.43
- Lesion scores, upper intestine ([2]; 99 mg/kg of feed): 1.20
- Feed efficiency, feed/gain ([2]; 121 mg/kg of feed): 2.16
- Feed consumption ([2]; 121 mg/kg of feed): 3.19 kg/7 d
- Gain ([2]; 121 mg/kg of feed): 1.47 kg/7 d
- Final weight ([2]; 121 mg/kg of feed): 3.72 kg
- Lesion scores, middle intestine ([2]; 121 mg/kg of feed): 1.57
- Lesion scores, upper intestine ([2]; 121 mg/kg of feed): 1.23
- Feed efficiency, feed/gain ([2]; 143 mg/kg of feed): 2.19
- Feed consumption ([2]; 143 mg/kg of feed): 3.46 kg/7 d
- Gain ([2]; 143 mg/kg of feed): 1.58 kg/7 d
- Final weight ([2]; 143 mg/kg of feed): 3.97 kg
- Lesion scores, middle intestine ([2]; 143 mg/kg of feed): 1.47
- Lesion scores, upper intestine ([2]; 143 mg/kg of feed): 0.50
- Feed efficiency, feed/gain ([2]; 165 mg/kg of feed): 1.84
- Feed consumption ([2]; 165 mg/kg of feed): 3.47 kg/7 d
- Gain ([2]; 165 mg/kg of feed): 1.89 kg/7 d
- Final weight ([2]; 165 mg/kg of feed): 4.21 kg
- Lesion scores, middle intestine ([2]; 165 mg/kg of feed): 0.70
- Lesion scores, upper intestine ([2]; 165 mg/kg of feed): 0.66
- Protection against coccidiosis ([2]; all non-zero concentrations tested): protection against coccidiosis was afforded by all non-zero concentrations
- Lesion scores in the upper and middle intestines (in words) [2, 6]: greatly reduced lesion scores in the upper and middle intestines
- Quantity of feed required per unit of gain (in words) [2, 6]: halved the quantity of feed required per unit of gain
- Weight gain (in words) [2, 6]: doubled weight gain
- Lactic acid suppression (in words) (rumen fluid [3]): surprisingly and unexpectedly high
- Lactic acid production rate (rumen fluid [3]; 0.31 μg/ml, 5.5 h): 28.4
- activity at 0.31 µg/mL (rumen fluid [3]; 0.31 μg/ml, 5.5 h, read-out: Lactic acid production, percentage of control): 102%
- Lactic acid production rate (rumen fluid [3]; 0.62 μg/ml, 5.5 h): 27.7
- activity at 0.62 µg/mL (rumen fluid [3]; 0.62 μg/ml, 5.5 h, read-out: Lactic acid production, percentage of control): 99%
- Lactic acid production rate (rumen fluid [3]; 1.25 μg/ml, 5.5 h): 15.6
- activity at 1.25 µg/mL (rumen fluid [3]; 1.25 μg/ml, 5.5 h, read-out: Lactic acid production, percentage of control): 56%
- Lactic acid production rate (rumen fluid [3]; 2.50 μg/ml, 5.5 h): 6.1
- Lactic acid production, percentage of control (rumen fluid [3]; 2.50 μg/ml, 5.5 h): 21 % of control
- activity at 2.5 µg/mL (rumen fluid [3]; 2.50 μg/ml, 5.5 h, read-out: Lactic acid production, percentage of control): 21%
- Lactic acid production rate (rumen fluid [3]; 5.00 μg/ml, 5.5 h): 3.8
- activity at 5 µg/mL (rumen fluid [3]; 5.00 μg/ml, 5.5 h, read-out: Lactic acid production, percentage of control): 13%
- Lactic acid production rate (rumen fluid [3]; 10.00 μg/ml, 5.5 h): 4.0
- activity at 10 µg/mL (rumen fluid [3]; 10.00 μg/ml, 5.5 h, read-out: Lactic acid production, percentage of control): 14%
- Lactic acid production rate (rumen fluid [3]; 20.00 μg/ml, 5.5 h): 3.8
- activity at 20 µg/mL (rumen fluid [3]; 20.00 μg/ml, 5.5 h, read-out: Lactic acid production, percentage of control): 13%
- Inhibition of lactic acid production relative to laidlomycin (rumen fluid [3]; over all concentrations tested): superior to laidlomycin (P<0.05)
- half-life ([4]; 60° C., methanol-water, acetate buffer, read-out: t1/2 (converted)): 32.7 days
- Stability in solution (in words) [4, 7]: highly stable
- Stability in feed premixes (in words) [5, 7]: highly stable
- remaining at 168 h ([5]; soybean millrun feed premix, 60° C., one week, soybean millrun premix, 10% (w/w)): 100%
